We go through six molecules from patent EP1276895B1, “METHOD FOR THE IDENTIFICATION OF ACTIVE SITE PROTEASE INACTIVATORS” (THE UNIVERSITY OF GEORGIA RESEARCH FOUNDATION, INC., priority 2000, dated 2001).

What all share (assay type): biochemical
Assay [1] relates to purified cysteine protease of Taenia solium. Nature of the assay: Human IgG degradation inhibition test, western blot (Step IV), purified enzyme. The following applies: 18 hrs, 37°C, E 64 10^-6 M, vehicle 10^-3 M. The protocol: To conduct this assessment, a western blot was performed. IgG digestion was detected by incubating 20 ul of T. solium purified enzyme or T. so/ium extract with 1 ug of human IgG (Sigma, St. Louis) in a final volume of 100 ul of assay buffer. Exogenous thiol activation was assessed by incubating the assay in the presence or absence of cysteine. The catalytic class of the IgG protease was determined by pre-incubating the following proteinase inhibitors at their active concentrations, with the enzyme: E 64 (10^-6 M, cysteine proteinases), phenylmethylsulfonyl fluoride (PMSF) (10^-3 M, serine proteinases), pepstatin A (10^-6 M, aspartic proteinases), and 1,10 phenanthroline (10^-3 M, metalloproteinases), and the vehicle, Mu-Leu-Tyr-AFC (10^-3 M). After addition of IgG, the assay was incubated overnight (37°C, 18 hrs). Subsequently, 100 ul of the mixture was boiled in sodium dodecyl sulfate polyacrylamide gel electrophoresis (SDS-PAGE) sample buffer with 2% 2-mercaptoethanol, separated by 12.5% SDS-PAGE, and blotted onto a polyvinylidene difluoride membrane. Tris buffered saline containing 0.1% bovine serum albumin and 0.05% Tween 20 (TBS-BSA) was used to block nonspecific binding. […]

The test system of assay [2] is Taenia solium crude mix. The experiment in a line: Substrate cleavage screen of AFC-linked synthetic substrates (Step II), crude mix. As to conditions: 0.4 M Citrate pH 4.9, 18 h, 37 °C. The protocol: In order to prepare the Taenia solium "crude mix", dry frozen Taenia solium cysts were obtained from 6-12 month old cysticercotic pigs from villages in an endemic area of porcine cysticercosis in Mexico. Metacestodes were carefully dissected from the parasitized tissues, washed three times with PBS, and lyophilized. Parasite extracts were prepared by suspending 0.1 grams of dry frozen cysts in 10 ml of extraction buffer (0.4 M citrate, pH 4.9). The cysts were vortexed for three five-minute intervals with intermittent incubations (5 min) at 4 °C. Particulate material was removed by centrifugation (20,000 x g, 120 min) and the resulting soluble fraction filtered ([…]). In assay buffers, the detectable amount of the crude mix, as described above, was employed and incubated with the target substrates.
(§1) Vmax was calculated for the cleavage of substrates by the purified target protease and Vmax was calculated for substrates cleaved by the crude mix protease using conventional kinetic modeling calculations already described in the art.
Similar steps were employed here as they are for the purified protease. As will be noted, similar conclusions were noted on the identification of the protease inhibitor on the crude mix, and the identical hypothesis was derived (Fig. 4b). It is notable that the most cleaved substrates were Z-FR-AFC, Z-FAR-AFC, Z-AAK-AFC, AP-AFC, Z-VLR-AFC, respectively. This cleavage pattern, noted along with others, was highly similar to the cleavage pattern due to the purified protease. […] Moreover, non-cleaved substrates were also highly similar, although there were subtle variations in relative cleavage for the non-cleaved substrates. However, this would be expected as fluorometric readings will tend to have subtle variation at lower readings due to background effects.

The subject of assay [3] is purified Taenia solium cysteine protease. The experiment in a line: Substrate cleavage screen of AFC-linked synthetic substrates (Step II), purified protease. The following applies: 1 ug purified protease, 1 ug substrate, Citrate pH 4.9 with 0.01 M cysteine, 18 h, 37 °C. As for the experimental part: In this step, the most efficacious substrate for detection of the cysteine protease (high Kcat substrate) was determined in vitro along with those substrates which were not well cleaved (low kcat substrates). From this point forth, the following conditions refer to all assays: "assay buffer" refers to 0.4 M Citrate, pH 4.9 (the pH optima of the protease). Incubation time was 18 hours at 37°C. These conditions were determined by our preliminary data to be best for kinetic evaluation of the protease. […] The experiments were conducted in […] Borosilicate mini-culture tubes (Fisher Scientific), and a fluorometer (Turner) was employed for detection of AFC cleavage.
Approximately 1 ug (or a proteolytically detectable amount) of the purified target cysteine protease was incubated individually, with 1 ug of each of the available substrates in 500 uL of assay buffer. During this setup, the substrate was pre-incubated in the assay buffer for a short period of time (20 minutes) in order to reach an equilibrated status before the addition of the protease. Cleavage assessments were based upon the property of the protease to cleave synthetic peptide substrates linked at the C-terminus to 7-Amino-4-Trifluoromethyl Coumarin (AFC) as previously described. AFC linked tripeptides, dipeptides, and monopeptides, (with a variety of permutations at P3-P1) were available from Enzyme Systems Products (Livermore, CA), and were used as the source of the subset. Following incubation of enzyme preparations overnight (18 h, 37 °C) with peptide in assay buffer (Citrate, pH 4.9, supplemented with 0.01 M cysteine), free AFC concentrations were measured fluorometrically (excitation 405 nm, emission 505 nm). The proteolytic cleavage released the AFC group, which was measurable as a free molecule by a standard fluorometer and converted into molar quantities, based upon a previously established standard curve. The simplicity of AFC detection by the fluorometer was a key factor which quickened and simplified the procedures.
In the assay, 1 ug of the purified Taenia cysteine protease was added to a saturating amount of Z-Phe-Arg-AFC (4X10^-5 M) in assay buffer. The experiment was conducted in triplicate and repeated at least 5 times until we were certain that variability in AFC cleavage was not statistically significant.
as §1

The test system is the same in assay [4]. Nature of the assay: Competitor assay of low Vmax substrates (vehicles) against high Vmax substrate cocktails (Step III), purified protease. The following applies: purified protease; for V Value: V = P * M, P = inhibition with first (1.4%) cocktail, M = inhibition with last (7.4%) cocktail, vehicle 8X10^-6M, each cocktail substrate 1X10^-6 M. The protocol: (We employed "Vmax" here although Kcat could also be used). Due to the lower number of substrates, a percentage was not chosen for the "BOTTOM %" " substrates. Alternately, all substrates which were not cleaved as determined by a value of 10 uM/hr or less, were chosen to be tested in this step for competitive ability. From this point forth, the term "vehicle" will represent low Vmax substrates that were capable of inhibiting cleavage of the percent cocktails. In this instance, we tested for "vehicles" which inhibited cleavage of the TOP 1.4% cocktail (they were delivered into the active site). Based upon our results from Step II, the top 1.4% cocktail was composed of Z-Phe-Arg-AFC, the highest cleaved substrate.
(§2) The experiment began with a competitor test between the noncleaved low Vmax substrates and the highest Vmax substrate, Z-Phe-Arg-AFC. Concentrations were varied between the low Vmax substrate and Z-Phe-Arg-AFC, as described above under "refinement of assay" until a relative inhibition profile was obtained.
The mixture was allowed to equilibrate for a period of 30 minutes. Finally, active purified enzyme was added to the tubes at a concentration which was always 50 times less than the concentration of the high and low Vmax substrates, in order to insure saturation conditions. This concentration varied from purification to purification and the amount added depended upon the yield and specific activity of the purified protease.
Positive controls were set up similarly as described for test controls, except that solvent was added in substitution for the low Vmax substrate (in a volume equal to the low Vmax volume addition). All of the substrates could be dissolved in dimethylsulfoxide (DMSO), and therefore, this was the solvent of choice. Negative controls were set up by adding the low Vmax and the high Vmax substrate in a tube without the protease. All potential non-proteolytic induced liberation of AFC was therefore controlled for in this tube (a feature which also insured stability of the AFC substrates, since these substrates will freely liberate AFC when unstable). A tube set will be established for this negative control.
All controls were set up in triplicate, and experiments repeated a minimum of five times. The assays were incubated at 37°C, for 18 hours overnight.
(§3) Percent inhibition was calculated as: %Inhibition =; ((AFC positive for"Y"-AFC negative for"Y")-(AFC test-AFC negative for"Y")X100)/(AFC positive for "Y"-AFC negative for "Y") [formula]
A 2.9% cocktail of the high Vmax substrates was made. This was composed of Z-FR-AFC and the second most cleaved substrate, Z-FAR-AFC. The vehicles promoted from the initial screenings above were again tested for competitive inhibition ability with the new cocktails. Their concentrations were set identically to those which were "fixed" in the previous protocols. In other words, 8X10^-6M of the vehicle was added to the culture tube with 1X10^-6 M of Z-FR-AFC and 1X10^-6 M of Z-FAR-AFC. Active protease was added last at a concentration that was 50 times less than the concentration of the high Vmax substrate (to ensure saturating conditions).
In similar experimental fashion, a 4.4%, 5.9%, and 7.4% cocktail were tested with each of the promising vehicles. Each percentage point represented an increase by one substrate. Each of the individual components in the cocktail were added at 1X10^-6 M each, to 8X10^-6 M of the vehicle. The composition of the cocktails was as follows: 4.4% cocktail: Z-FR-AFC, Z-FAR-AFC, and Z-AAK-AFC (third highest cleaved substrate); 5.9% cocktail: Z-FR-AFC, Z-FAR-AFC, Z-AAK-AFC, and AP-AFC (fourth highest cleaved substrate); 7.4% cocktail: […], Z-FAR-AFC, Z-AAK-AFC, AP-AFC, and Z-VLR-AFC. We stopped at this number of substrates in the cocktail, since confidence was obtained that inhibitory potential of vehicles could be "diluted out."
Finally, a manageable set of candidate vehicles was determined. […]

Assay [5] concerns Taenia solium crude mix. Nature of the assay: Competitor assay of vehicles against high Vmax substrate cocktails (Step III), crude mix. As for the experimental part: Step III for a crude mix proceeds it would for a purified protease, except that Vm is used instead of kcat.
as §2, §3
One of the most intriguing findings in this experiment was that a highly similar inhibition pattern for the competitor assay was noted when the crude mix was employed as the source of the target protease. Although there were some variations in the effects of inhibitor dilution, the most highly ranked vehicles remained inhibitory consistently in comparison to the profile with the target protease. The relative profile and composition of the top tiers of vehicles was identical. Z-LLL-AFC, Z-LLY-AFC, Mu-LY-AFC, Boc-VPR-AFC, Z-SY-AFC, Z-RR-AFC, Z-FLF-AFC, Z-LGR-AFC consistently presented as the top eight vehicles (Fig. 5b), respectively, based upon their V values (Table 2). […] It was notable that the three vehicles had very similar V values. […] As was mentioned, this vehicle along with Z-LLL-AFC and Z-LLY-AFC, were consistently the most inhibitory vehicles. The V values of the most inhibitory vehicle series are shown below in Table 2. Again, a clear break between the first and second tier vehicles could be noted with the V value. Table 2. Vehicles and V value rankings.

The subject of assay [6] is purified Taenia solium cysteine protease. The experiment in a line: Competitor assay of low Vmax substrates (vehicles) against high Vmax substrate cocktails (Step III), purified protease. The following applies: robustness of inhibition.

Residues, ends and D or L forms follow the SMILES beside them. *: point of attachment. AFC = O=c1cc(C(F)(F)F)c2ccc(N*)cc2o1; Cbz = O=C(OCc1ccccc1)*; Boc = CC(C)(C)OC(=O)*

Turning to `CC(C)CC(NC(=O)C1OC1C(=O)O)C(=O)NCCCCNC(=N)N` (centres unmarked) [E64, reference compound], in assay [1], the “inhibition of cleavage of human IgG” value is reported as “Inhibition was noted”.

Consider `C[C@H](NC(=O)[C@H](Cc1ccccc1)NC(=O)OCc1ccccc1)C(=O)N[C@@H](CCCNC(=N)N)C(=O)Nc1ccc2c(C(F)(F)F)cc(=O)oc2c1` [Z-FAR-AFC] (Cbz-Phe-Ala-Arg-{AFC}), for which the “cleavage of AFC-linked substrate (Vmax)” value in assay [2] is listed as “most cleaved”.

Consider `CC(C)C[C@H](NC(=O)[C@@H](NC(=O)OCc1ccccc1)C(C)C)C(=O)N[C@@H](CCCNC(=N)N)C(=O)Nc1ccc2c(C(F)(F)F)cc(=O)oc2c1` [Z-VLR-AFC] (Cbz-Val-Leu-Arg-{AFC}), for which, in assay [2], the “cleavage of AFC-linked substrate (Vmax)” value is on record as “most cleaved”.

For the molecule `N=C(N)NCCC[C@H](NC(=O)[C@H](Cc1ccccc1)NC(=O)OCc1ccccc1)C(=O)Nc1ccc2c(C(F)(F)F)cc(=O)oc2c1` [Z-FR-AFC, Z-Phe-Arg-AFC, reference compound] (Cbz-Phe-Arg-{AFC}), the “cleavage of AFC-linked substrate (Vmax)” value is recorded as “most cleaved” in assay [2], “cleaved” in assay [3] and “highest Vmax” in assay [3] (listed as Z-Phe-Arg-AFC).

For the molecule `CC(C)[C@H](NC(=O)OC(C)(C)C)C(=O)N1CCC[C@H]1C(=O)N[C@@H](CCCNC(=N)N)C(=O)Nc1ccc2c(C(F)(F)F)cc(=O)oc2c1` [B-VPR-AFC, Boc-Val-Pro-Arg-AFC] (Boc-Val-Pro-Arg-{AFC}), in assay [4] (7.4% cocktail = Z-FR-AFC + Z-FAR-AFC + Z-AAK-AFC + AP-AFC + Z-VLR-AFC, 1X10^-6 M each, vehicle 8X10^-6 M), the “inhibition with the final cocktail (7.4%)” value is listed as “less than 20%”. The “V Value” in assay [4] worked out at 0.116; in assay [4] (listed as B-VPR-AC), 0.120; in assay [5] (V = P * M), 0.12. The Tier in assay [5] is 2 (The second tier was composed of those vehicles, which produced inhibition between 20-50% inhibition when in the presence of the 1.4% cocktail). The “percentage drop in inhibition between the 1.4% and the 7.4% cocktail” value in assay [6] is listed as 38%. Besides, the “cleavage of AFC-linked substrate (Vmax)” value in assay [3] is “noncleavable”.

In the case of `C[C@H](NC(=O)OCc1ccccc1)C(=O)N[C@@H](C)C(=O)N[C@@H](CCCCN)C(=O)Nc1ccc2c(C(F)(F)F)cc(=O)oc2c1` [Z-AAK-AFC] (Cbz-Ala-Ala-Lys-{AFC}), the “cleavage of AFC-linked substrate (Vmax)” value in assay [2] is on record as “most cleaved”.
